# Structures can show the parent of a compound that is named as a salt.
# Tested on: not given
# Assay: not given
# Conditions: not given
row,SMILES,melting point
1,O=C([O-])CN1CCC2(C=C(c3ccc(F)cc3)c3ccccc3O2)CC1.[Li+],285 to 291 °C (dec.)
2,O=C([O-])CN1CCC2(C=C(c3ccccc3)c3cc(F)ccc3O2)CC1.[Li+],293 to 298 °C (dec.)
3,O=C([O-])CN1CCC2(C=C(c3ccccc3)c3ccccc3O2)CC1.[Li+],280 to 281 °C
4,O=C([O-])CN1CCC2(CC1)CC(c1ccc(F)cc1)c1ccccc1O2.[Li+] (centres unmarked),274 to 278 °C (dec.)
5,"O=C(O)CN1CCC2(C=C(c3ccc(Cl)cc3)c3ccccc3O2)CC1 (as salt: hydrochloride) [Example 2, 1′-Carboxymethyl-4-(4-chlorophenyl)spiro[2H-1-benzopyran-2,4′-piperidine]hydrochloride]",259 to 265 °C
6,"O=C(O)CN1CCC2(C=C(c3ccc(Cl)c(F)c3)c3ccccc3O2)CC1 (as salt: hydrochloride) [Example 8, 1′-Carboxymethyl-4-(4-chloro-3-fluorophenyl)spiro[2H-1-benzopyran-2,4′-piperidine]hydrochloride]",263 to 274 °C
7,"O=C(O)CN1CCC2(C=C(c3ccc4ccccc4c3)c3ccccc3O2)CC1 (as salt: hydrochloride) [Example 10, 1′-Carboxymethyl-4-(2-naphthyl)spiro[2H-1-benzopyran-2,4′-piperidine]hydrochloride]",253 to 264 °C
8,"COc1ccc(C2=CC3(CCN(CC(=O)O)CC3)Oc3ccccc32)cc1F (as salt: hydrochloride) [Example 11, 1′-Carboxymethyl-4-(3-fluoro-4-methoxyphenyl)spiro[2H-1-benzopyran-2,4′-piperidine]hydrochloride]",252 to 261 °C
9,"CN(C)c1ccc(C2=CC3(CCN(CC(=O)O)CC3)Oc3ccccc32)cc1 (as salt: hydrochloride) [Example 24, 1′-Carboxymethyl-4-[4-(N,N-dimethylamino)phenyl]spiro[2H-1-benzopyran-2,4′-piperidine]hydrochloride]",238 to 250 °C

# Target: T1, human GlyT-1b transporter (Homo sapiens, UniProt P48067)
# T1 construct: expressed in transfected cells; host or cells: CHO cells, stably transfected (pcDNA3, Geneticin selection)
# T1 sequence (P48067 1-652 isoform P48067-3): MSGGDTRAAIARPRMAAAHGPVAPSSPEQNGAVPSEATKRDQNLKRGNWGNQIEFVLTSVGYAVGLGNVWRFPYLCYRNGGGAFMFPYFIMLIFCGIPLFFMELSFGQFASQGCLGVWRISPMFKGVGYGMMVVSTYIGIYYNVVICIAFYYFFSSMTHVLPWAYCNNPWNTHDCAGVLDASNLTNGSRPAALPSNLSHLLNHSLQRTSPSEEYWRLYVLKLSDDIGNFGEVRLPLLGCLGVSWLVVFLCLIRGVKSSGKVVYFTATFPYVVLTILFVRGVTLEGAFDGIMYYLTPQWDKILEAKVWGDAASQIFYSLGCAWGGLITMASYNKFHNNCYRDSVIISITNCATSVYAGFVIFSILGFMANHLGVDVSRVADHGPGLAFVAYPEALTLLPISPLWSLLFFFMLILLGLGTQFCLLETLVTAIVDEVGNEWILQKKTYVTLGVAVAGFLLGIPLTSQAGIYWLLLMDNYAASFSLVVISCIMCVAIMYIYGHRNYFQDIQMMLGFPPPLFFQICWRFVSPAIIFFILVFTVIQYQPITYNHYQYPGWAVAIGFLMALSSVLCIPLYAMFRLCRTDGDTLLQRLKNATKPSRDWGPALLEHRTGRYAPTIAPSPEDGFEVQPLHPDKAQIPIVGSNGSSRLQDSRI
# Assay: Glycine uptake in CHO cells heterologously expressing the human GlyT-1b transporter ([3H]glycine uptake)
# Format: cell-based
# Conditions: CHO cells stably expressing hGlyT-1b, 10 minutes, 37° C.
# Protocol: Method for Determination of Glycine Uptake in CHO Cells Heterologously Expressing the Human GlyT-1b Transporter
# A: Cloning: cDNA was generated by PCR according to the method described by Kim, K.-M. et al. Mol. Pharmacol. 1994, 45, 608-617. Sequence was verified by dideoxy sequencing using the ALF DNA sequencer™ (Pharmacia) and cloned into the expression construct pcDNA3 (Invitrogen).
# B: Transfection: Transfection of hGlyT-1b into CHO cells was performed using a standard calcium phosphate technique as described by Sambrook, J. et al. (1989) in Molecular Cloning: A Laboratory Manual, Cold Spring Harbor Laboratory, Cold Spring Harbor, N.Y.
# C: Selection: Stably transfected cells were selected for 1 week in growth medium containing 1 mg.cm^−3 Geneticin. Individual clones were picked for further analysis and positives passaged routinely as described below.
# D: Culture conditions: Cells stably expressing; the hGlyT-1b gene were cultured at 37° C. in a 5% C02 atmosphere in DMEM—NUT.MIX. F12 with Glutamax-1 (Gibco) containing Geneticin (0.5 mg.cm^−3, Gibco) and supplemented with 10% Fetalclone II (Hyclone). Maintenance culture was carried out in standard 80 cm^2 ventilated flasks (2×10^−6 m filter, Nunc) and cells were subcultured by trypsinisation (Sigma) when confluent.
# E: Assay Procedure: Cells for uptake studies were plated in 96 well plates (17,000 cells per well) in the absence of Geneticin and cultured for 48 h before use. To measure glycine transport, cells were washed twice with Hanks' balanced salt solution (HBSS) pre-warmed to 37° C. and excess fluid removed before addition of test compounds dissolved in 0.200 cm^3 HBSS. Plates were incubated at 37° C. for 5 minutes before addition of [^3H]glycine (0.050′cm^3, 150×10^−6 M, 248 Bq.nmol^−1, NEN) and incubation continued for a further 10 minutes. Uptake was terminated by washing cells with ice-cold HBSS before removal of excess fluid and addition of 0.200 cm^3 scintillation cocktail to each well. Plates were sealed with adhesive film, shaken to ensure samples were homogenous before scintillation counting in a plate counter.
# F: Analysis: Data were analysed using standard curve fitting procedures to produce a plC50 value for active compounds (where plC50 is the negative logarithm of the concentration of test compound causing 50% inhibition of uptake).
row,SMILES,"Inhibition of glycine transport by hGlyT-1, pIC50"
1,"Cc1ccc(C2=CC3(CCN(CC(=O)O)CC3)Oc3ccccc32)cc1.Cl [Example 4, 1′-Carboxymethyl-4-(4-methylphenyl)spiro[2H-1-benzopyran-2,4′-piperidine]hydrochloride]",6.3
2,"Cl.O=C(O)CN1CCC2(C=C(c3ccc4c(c3)OCO4)c3ccccc3O2)CC1 [Example 14, 4-(1,3-Benzodioxolo)-1′-carboxymethylspiro[2H-1-benzopyran-2,4′-piperidine]hydrochloride]",6.1
3,"Cl.O=C(O)CN1CCC2(C=C(c3ccc4c(c3)OC(F)(F)O4)c3ccccc3O2)CC1 [Example 33, 1′-Carboxymethyl-4-(2,2-difluoro-1,3-benzodioxolo)spiro[2H-1-benzopyran-2,4′-piperidine]hydrochloride]",6.2

# Same assay, conditions: CHO cells stably expressing hGlyT-1b, 10 minutes, 37° C., read-out: Inhibition of glycine transport by hGlyT-1, pIC50 (converted)
row,SMILES,IC50
1,"O=C(O)CN1CCC2(C=C(c3ccc(Cl)cc3)c3ccccc3O2)CC1 [Example 2, 1′-Carboxymethyl-4-(4-chlorophenyl)spiro[2H-1-benzopyran-2,4′-piperidine]hydrochloride]",1000 nM
2,"O=C(O)CN1CCC2(C=C(c3ccc(Cl)c(F)c3)c3ccccc3O2)CC1 [Example 8, 1′-Carboxymethyl-4-(4-chloro-3-fluorophenyl)spiro[2H-1-benzopyran-2,4′-piperidine]hydrochloride]",501 nM
3,"O=C(O)CN1CCC2(C=C(c3ccc4ccccc4c3)c3ccccc3O2)CC1 [Example 10, 1′-Carboxymethyl-4-(2-naphthyl)spiro[2H-1-benzopyran-2,4′-piperidine]hydrochloride]",631 nM
4,"COc1ccc(C2=CC3(CCN(CC(=O)O)CC3)Oc3ccccc32)cc1F [Example 11, 1′-Carboxymethyl-4-(3-fluoro-4-methoxyphenyl)spiro[2H-1-benzopyran-2,4′-piperidine]hydrochloride]",631 nM
5,"CC(C)(C)c1ccc(C2=CC3(CCN(CC(=O)O)CC3)Oc3ccccc32)cc1 [Example 12, 1′-Carboxymethyl-4-(4-tert-butylphenyl)spiro[2H-1-benzopyran-2,4′-piperidine]hydrochloride]",398 nM
6,"CN(C)c1ccc(C2=CC3(CCN(CC(=O)O)CC3)Oc3ccccc32)cc1 [Example 24, 1′-Carboxymethyl-4-[4-(N,N-dimethylamino)phenyl]spiro[2H-1-benzopyran-2,4′-piperidine]hydrochloride]",631 nM
7,"Cc1ccc(C2=CC3(CCN(CC(=O)O)CC3)Oc3ccccc32)cc1F [Example 28, 1′-Carboxymethyl-4-(3-fluoro-4-methylphenyl)spiro[2H-1-benzopyran-2,4′-piperidine]hydrochloride]",316 nM
8,"Cc1ccc(C2=CC3(CCN(CC(=O)O)CC3)Oc3cc(Cl)ccc32)cc1F [Example 35, 1′-Carboxymethyl-7-chloro-4-(3-fluoro-4-methylphenyl)spiro[2H-1-benzopyran-2,4′-piperidine]hydrochloride]",501 nM
9,"COc1c(F)cc(C2=CC3(CCN(CC(=O)O)CC3)Oc3ccccc32)cc1F [Example 36, 1′-Carboxymethyl-4-(3,5-difluoro-4-methoxyphenyl)spiro[2H-1-benzopyran-2,4′-piperidine]hydrochloride]",398 nM
10,"CN(C)c1ccc(C2=CC3(CCN(CC(=O)O)CC3)Oc3ccccc32)cc1F [Example 37, 1′-Carboxymethyl-4-(4-dimethylamino-3-fluorophenyl)spiro[2H-1-benzopyran-2,4′-piperidine]hydrochloride]",398 nM
11,"CN(C)c1c(F)cc(C2=CC3(CCN(CC(=O)O)CC3)Oc3ccccc32)cc1F [Example 38, 1′-Carboxymethyl-4-(3,5-difluoro-4-dimethylaminophenyl)spiro[2H-1-benzopyran-2,4′-piperidine]hydrochloride]",251 nM
12,"O=C(O)CN1CCC2(C=C(c3ccc(Br)c(F)c3)c3ccccc3O2)CC1 [Example 39, 4-(4-Bromo-3-fluorophenyl)-1′-carboxymethylspiro[2H-1-benzopyran-2,4′-piperidine]hydrochloride]",794 nM
13,"CCCOc1ccc(C2=CC3(CCN(CC(=O)O)CC3)Oc3ccccc32)cc1F [Example 48, 1′-Carboxymethyl-4-(3-fluoro-4-n-propoxyphenyl)spiro[2H-1-benzopyran-2,4′-piperidine]hydrochloride]",501 nM
14,"CCCCOc1ccc(C2=CC3(CCN(CC(=O)O)CC3)Oc3ccccc32)cc1F [Example 49, 1′-Carboxymethyl-4-(3-fluoro-4-n-butoxyphenyl)spiro[2H-1-benzopyran-2,4′-piperidine]hydrochloride]",794 nM
15,"C=CCOc1c(F)cc(C2=CC3(CCN(CC(=O)O)CC3)Oc3ccccc32)cc1F [Example 55, 4-(4-Allyloxy-3,5-difluorophenyl)-1′-carboxymethylspiro[2H-1-benzopyran-2,4′-piperidine]hydrochloride]",251 nM
16,"C#CCOc1c(F)cc(C2=CC3(CCN(CC(=O)O)CC3)Oc3ccccc32)cc1F [Example 57, 1′-Carboxymethyl-4-(3,5-difluoro-4-propargyloxyphenyl)spiro[2H-1-benzopyran-2,4′-piperidine]hydrochloride]",251 nM
17,"O=C(O)CN1CCC2(C=C(c3cc(F)c(OCC(F)(F)F)c(F)c3)c3ccccc3O2)CC1 [Example 59, 1′-Carboxymethyl-4-(3,5-difluoro-4-trifluoroethoxyphenyl)spiro[2H-1-benzopyran-2,4′-piperidine]hydrochloride]",251 nM

# Source: patent publication US6645973B1, “Spiro(2h-1-benzopyran-2,4-piperidine)derivatives as glycine transport inhibitors” (Akzo Nobel, priority 1999, dated 2003)
